Source: PubChem BioAssay (NCI)
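Growth conditions: 96-well plates. Treatment: test compound, 48 hours, 5 concentrations. Analysis: linear interpolation between bracketing concentrations; unreached endpoints set to highest concentration. GI50 marks 50% less growth. Definition used: TGI = concentration required for complete inhibition of growth.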

What was measured:
Test in all cases: DTP human tumour cell line panel, 48 h
KM12 colon = tested on: KM12 colon
NCI-H23 lung = tested on: NCI-H23 lung
RXF 393 renal = tested on: RXF 393 renal
ACHN renal = tested on: ACHN renal
NCI-H226 lung = tested on: NCI-H226 lung
SF-268 CNS = tested on: SF-268 CNS
K-562 leukemia = tested on: K-562 leukemia
MOLT-4 leukemia = tested on: MOLT-4 leukemia
SF-539 CNS = tested on: SF-539 CNS
A498 renal = tested on: A498 renal

`Cn1cc(NC(=O)Nc2cc(C(=O)Nc3cc(C(=O)Nc4cc(S(=O)(=O)O)c5cc(S(=O)(=O)O)cc(S(=O)(=O)O)c5c4)n(C)c3)n(C)c2)cc1C(=O)Nc1cc(C(=O)Nc2cc(S(=O)(=O)O)c3cc(S(=O)(=O)O)cc(S(=O)(=O)O)c3c2)n(C)c1` was tested, and the TGI (KM12 colon) was over 100 µM, the TGI (NCI-H23 lung) was over 100 µM and the TGI (RXF 393 renal) was over 100 µM. The TGI (ACHN renal) was over 100 µM, the TGI (NCI-H226 lung) was over 100 µM and the TGI (SF-268 CNS) was over 100 µM. It also gave a TGI (K-562 leukemia) of over 100 µM, a TGI (MOLT-4 leukemia) of over 100 µM and a TGI (SF-539 CNS) of over 100 µM.

For `CC1=CC(=O)NP(=O)(C23CC4CC(CC(C4)C2)C3)N1` (stereo unspecified), the TGI (KM12 colon) was over 100 µM, the TGI (NCI-H23 lung) was over 100 µM and the TGI (ACHN renal) was over 100 µM. It also gave a TGI (A498 renal) of over 100 µM, a TGI (NCI-H226 lung) of over 100 µM and a TGI (SF-268 CNS) of over 100 µM. The TGI (K-562 leukemia) was over 100 µM, the TGI (MOLT-4 leukemia) was over 100 µM and the TGI (SF-539 CNS) was over 100 µM.

In the case of `CC(C)(C)Sc1nnc(SC(C)(C)C)c2c(=O)[nH]nc(SC(C)(C)C)c12`, the TGI (KM12 colon) is reported as 25.6 µM, the TGI (NCI-H23 lung) is reported as 22.9 µM and the TGI (RXF 393 renal) is reported as 14.2 µM. The TGI (A498 renal) was 27.1 µM, the TGI (NCI-H226 lung) was 28.5 µM and the TGI (SF-268 CNS) was 21.2 µM. It also gave a TGI (K-562 leukemia) of 26.8 µM, a TGI (MOLT-4 leukemia) of 15.7 µM and a TGI (SF-539 CNS) of 22.6 µM.

Work on `CNC(c1ccncc1)C(NC)c1ccncc1` (stereo unspecified) yielded a TGI (KM12 colon) of over 100 µM, a TGI (NCI-H23 lung) of over 100 µM and a TGI (RXF 393 renal) of over 100 µM. For the same compound, the TGI (ACHN renal) was over 100 µM, the TGI (A498 renal) was over 100 µM and the TGI (NCI-H226 lung) was over 100 µM. It also gave a TGI (SF-268 CNS) of over 100 µM, a TGI (K-562 leukemia) of over 100 µM and a TGI (MOLT-4 leukemia) of over 100 µM.

`CCCCCCCCCCSC(=N)N` gave a GI50 (KM12 colon) of 2.45 µM, a TGI (KM12 colon) of 6.5 µM and a GI50 (NCI-H23 lung) of 6.38 µM. The TGI (NCI-H23 lung) was 21.3 µM, the GI50 (RXF 393 renal) was 5.1 µM and the TGI (RXF 393 renal) was 17.6 µM. The GI50 (ACHN renal) was 2.82 µM, the TGI (ACHN renal) was 9.33 µM and the GI50 (A498 renal) was 4.69 µM. For the same compound, the TGI (A498 renal) was 19.3 µM, the GI50 (NCI-H226 lung) was 6.09 µM and the TGI (NCI-H226 lung) was 23.2 µM. The GI50 (SF-268 CNS) was 4.2 µM, the TGI (SF-268 CNS) was 17 µM and the GI50 (SF-539 CNS) was 10.2 µM. The TGI (SF-539 CNS) was 22.1 µM.

With `COc1cc(C(C#N)NNc2nc(C)cc(=O)[nH]2)cc(OC)c1OC` (stereo unspecified) the TGI (KM12 colon) was over 100 µM, the TGI (NCI-H23 lung) was over 100 µM and the TGI (RXF 393 renal) was over 100 µM. It also gave a TGI (ACHN renal) of over 100 µM, a TGI (NCI-H226 lung) of over 100 µM and a TGI (SF-268 CNS) of over 100 µM. For the same compound, the TGI (K-562 leukemia) was over 100 µM and the TGI (SF-539 CNS) was over 100 µM.

In the case of `CC(=O)OC(=O)O/C=C\CCl`, the TGI (KM12 colon) is reported as over 100 µM, the TGI (RXF 393 renal) is reported as over 100 µM and the TGI (ACHN renal) is reported as over 100 µM. For the same compound, the TGI (A498 renal) was over 100 µM, the TGI (NCI-H226 lung) was over 100 µM and the TGI (SF-268 CNS) was over 100 µM. The TGI (K-562 leukemia) was over 100 µM, the TGI (MOLT-4 leukemia) was over 100 µM and the TGI (SF-539 CNS) was over 100 µM.

`O=CCCCC(Sc1ccccc1)Sc1ccccc1` was tested, and the TGI (KM12 colon) was over 100 µM, the TGI (NCI-H23 lung) was 27.3 µM and the TGI (ACHN renal) was 38.4 µM. The TGI (A498 renal) was over 100 µM, the TGI (SF-268 CNS) was 43.3 µM and the TGI (K-562 leukemia) was 76.6 µM. It also gave a TGI (MOLT-4 leukemia) of 38.9 µM.

`COc1ccc2c(c1)c1c3n2CCNN=C3CCC1` showed a TGI (KM12 colon) of over 100 µM, a TGI (NCI-H23 lung) of over 100 µM and a TGI (ACHN renal) of over 100 µM. For the same compound, the TGI (A498 renal) was over 100 µM, the TGI (NCI-H226 lung) was over 100 µM and the TGI (SF-268 CNS) was over 100 µM. It also gave a TGI (K-562 leukemia) of over 100 µM, a TGI (MOLT-4 leukemia) of over 100 µM and a TGI (SF-539 CNS) of over 100 µM.

`N#CC(C(=O)CCCC(=O)Nc1ccc(Cl)cc1Cl)c1ccc(Cl)cc1` (stereo unspecified) was tested, and the TGI (KM12 colon) was over 100 µM, the TGI (NCI-H23 lung) was over 100 µM and the TGI (ACHN renal) was over 100 µM. For the same compound, the TGI (NCI-H226 lung) was over 100 µM, the TGI (SF-268 CNS) was over 100 µM and the TGI (K-562 leukemia) was over 100 µM. It also gave a TGI (MOLT-4 leukemia) of over 100 µM and a TGI (SF-539 CNS) of over 100 µM.

Compound H-QIYKKYRTWYRKAWKVLGKV-NH2 has a GI50 (KM12 colon) of 2.97 µM, a TGI (KM12 colon) of 9.37 µM and a GI50 (NCI-H23 lung) of 3.96 µM. For the same compound, the TGI (NCI-H23 lung) was 30.1 µM, the GI50 (RXF 393 renal) was 4.55 µM and the TGI (RXF 393 renal) was 27.4 µM. It also gave a GI50 (ACHN renal) of 12 µM, a TGI (ACHN renal) of 25.5 µM and a GI50 (NCI-H226 lung) of 12.4 µM. The TGI (NCI-H226 lung) was 58.7 µM, the GI50 (SF-268 CNS) was 3.99 µM and the TGI (SF-268 CNS) was 30.5 µM. It also gave a GI50 (K-562 leukemia) of 3.21 µM, a TGI (K-562 leukemia) of over 100 µM and a GI50 (MOLT-4 leukemia) of 11.7 µM. It also gave a TGI (MOLT-4 leukemia) of 79.5 µM, a GI50 (SF-539 CNS) of 2.21 µM and a TGI (SF-539 CNS) of 4.98 µM.
